Measurements from PubChem BioAssay AID248 (DTP/NCI, 2004).
Where “and” joins values, the source holds several entries; their conditions need not be identical. Equal entries are not always repeated. Toxic doses and inconclusive results are not listed. Rule as the data show it: active = T/C of 150% or more; inactive = T/C below 125%.

Tested on: L1210 leukemia ip in BDF1 mice, survival T/C
Assay: NCI In Vivo Anticancer Drug Screen. Data for tumor model L1210 Leukemia (intraperitoneal) in B6D2F1 (BDF1) mice
Settings: endpoint: mean survival time, higher = longer survival
Outline: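 Read-out is survival time, reported as the treated-group measurement over the vehicle-control measurement.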

[1] = dose: 100.0 mg/kg/injection, schedule: Q04DX003 (ip), vehicle: saline with Tween-80
[2] = dose: 200.0 mg/kg/injection, schedule: Q04DX003 (ip), vehicle: saline with Tween-80
[3] = dose: 400.0 mg/kg/injection, schedule: Q04DX003 (ip), vehicle: saline with Tween-80
[4] = dose: 100.0 mg/kg/injection, schedule: Q01DX001 (ip), vehicle: carboxymethylcellulose (CMC)
[5] = dose: 200.0 mg/kg/injection, schedule: Q01DX001 (ip), vehicle: carboxymethylcellulose (CMC)
[6] = dose: 400.0 mg/kg/injection, schedule: Q01DX001 (ip), vehicle: carboxymethylcellulose (CMC)
[7] = dose: 100.0 mg/kg/injection, schedule: Q04DX002 (ip), vehicle: Klucel (hydroxypropylcellulose) (HPC)
[8] = dose: 400.0 mg/kg/injection, schedule: Q04DX002 (ip), vehicle: Klucel (hydroxypropylcellulose) (HPC)
[9] = dose: 100.0 mg/kg/injection, schedule: Q04DX003 (ip), vehicle: saline
[10] = dose: 100.0 mg/kg/injection, schedule: Q01DX001 (ip), vehicle: saline
[11] = dose: 200.0 mg/kg/injection, schedule: Q01DX001 (ip), vehicle: saline
[12] = dose: 200.0 mg/kg/injection, schedule: Q04DX002 (ip), vehicle: Klucel (hydroxypropylcellulose) (HPC)
[13] = dose: 50.0 mg/kg/injection, schedule: Q01DX009 (ip), vehicle: saline
[14] = dose: 100.0 mg/kg/injection, schedule: Q01DX009 (ip), vehicle: saline

Measured: T/C

C[N+]1(CC2CO2)CCOCC1 (stereo not given)
inactive: dose: 75.0 mg/kg/injection, schedule: Q01DX001 (ip), vehicle: saline 109 % of control | dose: 150.0 mg/kg/injection, schedule: Q01DX001 (ip), vehicle: saline 106 % of control | dose: 300.0 mg/kg/injection, schedule: Q01DX001 (ip), vehicle: saline 96 % of control

O/N=C(\c1ccccc1)C(c1ccccc1)C(Cl)(Cl)Cl (stereo not given)
inactive: [1] 86 % of control | [2] 88 % of control | [3] 88 % of control

O=C(Oc1ccccc1C(=O)O)c1ccccc1O
inactive: dose: 50.0 mg/kg/injection, schedule: Q04DX003 (ip), vehicle: Klucel (hydroxypropylcellulose) (HPC) 90 % of control | dose: 100.0 mg/kg/injection, schedule: Q04DX003 (ip), vehicle: Klucel (hydroxypropylcellulose) (HPC) 97 % of control and 102 % of control | dose: 200.0 mg/kg/injection, schedule: Q04DX003 (ip), vehicle: Klucel (hydroxypropylcellulose) (HPC) 114 % of control | dose: 400.0 mg/kg/injection, schedule: Q04DX003 (ip), vehicle: Klucel (hydroxypropylcellulose) (HPC) 96 % of control

Clc1ccc(/C=C/c2ccc3ccccc3n2)cc1
inactive: dose: 75.0 mg/kg/injection, schedule: Q01DX Z (ip), vehicle: carboxymethylcellulose (CMC) 96 % of control | dose: 113.0 mg/kg/injection, schedule: Q01DX Z (ip), vehicle: carboxymethylcellulose (CMC) 90 % of control | dose: 170.0 mg/kg/injection, schedule: Q01DX Z (ip), vehicle: carboxymethylcellulose (CMC) 88 % of control | dose: 255.0 mg/kg/injection, schedule: Q01DX Z (ip), vehicle: carboxymethylcellulose (CMC) 88 % of control

Nc1c(N=O)c(=O)n(Cc2ccccc2)c(=O)n1Cc1ccccc1
inactive: dose: 50.0 mg/kg/injection, schedule: Q01DX001 (ip), vehicle: carboxymethylcellulose (CMC) 103 % of control | [4] 105 % of control | [5] 97 % of control | [6] 100 % of control

ClCCOCCOc1ccc(Cl)cc1
inactive: dose: 100.0 mg/kg/injection, schedule: Q04DX003 (ip), vehicle: acetone 98 % of control | dose: 200.0 mg/kg/injection, schedule: Q04DX003 (ip), vehicle: acetone 98 % of control | dose: 400.0 mg/kg/injection, schedule: Q04DX003 (ip), vehicle: acetone 91 % of control

O=C(Nc1ccccc1)Oc1ccc(Cl)cc1Cc1ccccc1
inactive: [7] 87 % of control | [8] 101 % of control

CCCOC(=O)Nc1cccc2ccccc12
inactive: dose: 12.5 mg/kg/injection, schedule: Q04DX002 (ip), vehicle: Klucel (hydroxypropylcellulose) (HPC) 101 % of control | dose: 25.0 mg/kg/injection, schedule: Q04DX002 (ip), vehicle: Klucel (hydroxypropylcellulose) (HPC) 86 % of control | dose: 50.0 mg/kg/injection, schedule: Q04DX002 (ip), vehicle: Klucel (hydroxypropylcellulose) (HPC) 96 % of control | [7] 101 % of control

NC(=NC1CCCCC1)c1ccc(C(=O)OCc2ccccc2)cc1
inactive: [4] 94 % of control | [5] 89 % of control | [6] 94 % of control

O=[As](O)(O)c1ccc(N=NSc2ncnc3nc[nH]c23)cc1
inactive: dose: 7.5 mg/kg/injection, schedule: Q01DX015 (ip), vehicle: carboxymethylcellulose (CMC) 112 % of control | dose: 15.0 mg/kg/injection, schedule: Q01DX015 (ip), vehicle: carboxymethylcellulose (CMC) 115 % of control

CC(=O)OC1C=CC(Oc2ccc([N+](=O)[O-])cc2)OC1CO (stereo not given)
inactive: [9] 93 % of control | dose: 200.0 mg/kg/injection, schedule: Q04DX003 (ip), vehicle: saline 91 % of control | dose: 400.0 mg/kg/injection, schedule: Q04DX003 (ip), vehicle: saline 96 % of control

COC(=O)/C=C(\C)Nc1ccc(Cc2ccc(N/C(C)=C/C(=O)OC)cc2)cc1
inactive: [10] 95 % of control | [11] 86 % of control

COc1cc(OC)c(NC(=S)Nc2ccccc2C(F)(F)F)cc1Cl
inactive: [7] 106 % of control | dose: 200.0 mg/kg/injection, schedule: Q01DX009 (ip), vehicle: Klucel (hydroxypropylcellulose) (HPC) 88 % of control | [12] 92 % of control | dose: 400.0 mg/kg/injection, schedule: Q01DX009 (ip), vehicle: Klucel (hydroxypropylcellulose) (HPC) 95 % of control | [8] 95 % of control

CC(=O)N(NC(C)C)C(C)C
inactive: dose: 6.25 mg/kg/injection, schedule: Q01DX009 (ip), vehicle: saline 104 % of control | dose: 12.5 mg/kg/injection, schedule: Q01DX009 (ip), vehicle: saline 93 % of control | dose: 25.0 mg/kg/injection, schedule: Q01DX009 (ip), vehicle: saline 94 % of control | dose: 25.0 mg/kg/injection, schedule: Q04DX003 (ip), vehicle: saline 98 % of control | [13] 100 % of control | dose: 50.0 mg/kg/injection, schedule: Q04DX003 (ip), vehicle: saline 98 % of control | [14] 104 % of control | [9] 93 % of control

COc1nc(=O)n(C2CCCO2)cc1I (stereo not given)
inactive: dose: 50.0 mg/kg/injection, schedule: Q01DX001 (ip), vehicle: saline 95 % of control | [10] 95 % of control | [11] 90 % of control

OC1CCCCC1Cc1ccccc1 (stereo not given)
inactive: dose: 100.0 mg/kg/injection, schedule: Q04DX003 (ip), vehicle: gum acacia 102 % of control | dose: 200.0 mg/kg/injection, schedule: Q04DX003 (ip), vehicle: gum acacia 96 % of control | dose: 400.0 mg/kg/injection, schedule: Q04DX003 (ip), vehicle: gum acacia 98 % of control

Cc1cc(OCC#CCN(C)c2ccccc2)ccc1Cl
inactive: [7] 89 % of control | [12] 99 % of control | [8] 96 % of control

O=c1[nH]cc(/C=N/O)c(=O)[nH]1
inactive: [4] 106 % of control | [5] 106 % of control | [6] 101 % of control

Nc1ccc(Nc2ncnc3nc[nH]c23)cc1
inactive: [1] 102 % of control | [2] 98 % of control | [3] 107 % of control

COc1cc(N)c([N+](=O)[O-])c(OC)c1
inactive: dose: 25.0 mg/kg/injection, schedule: Q01DX009 (ip), vehicle: saline with Tween-80 98 % of control | dose: 50.0 mg/kg/injection, schedule: Q01DX009 (ip), vehicle: saline with Tween-80 104 % of control | dose: 100.0 mg/kg/injection, schedule: Q01DX009 (ip), vehicle: saline with Tween-80 100 % of control | [1] 106 % of control

CCn1c(CC(O)(C(F)(F)F)C(F)(F)F)nc2ccccc21
inactive: [1] 101 % of control | [2] 98 % of control | [3] 101 % of control

COc1ccc(CCN(C)C2c3ccccc3C=Cc3ccccc32)cc1OC
inactive: dose: 100.0 mg/kg/injection, schedule: Q01DX001 (ip), vehicle: saline with Tween-80 103 % of control | dose: 200.0 mg/kg/injection, schedule: Q01DX001 (ip), vehicle: saline with Tween-80 107 % of control | dose: 400.0 mg/kg/injection, schedule: Q01DX001 (ip), vehicle: saline with Tween-80 98 % of control

O=C(CC(=O)c1ccccc1)c1ccccc1
inactive: dose: 100.0 mg/kg/injection, schedule: Q04DX002 (ip), vehicle: saline with Tween-80 97 % of control | dose: 200.0 mg/kg/injection, schedule: Q04DX002 (ip), vehicle: saline with Tween-80 102 % of control | dose: 400.0 mg/kg/injection, schedule: Q04DX002 (ip), vehicle: saline with Tween-80 94 % of control

CCOc1ccc(N=Cc2ccccc2OC(=O)c2ccccc2)cc1
inactive: [7] 105 % of control | [12] 101 % of control | [8] 97 % of control

Cc1nc2ccccc2c(Br)c1Br
inactive: [10] 91 % of control | [11] 94 % of control | dose: 400.0 mg/kg/injection, schedule: Q01DX001 (ip), vehicle: saline 96 % of control

CC(Cc1ccc(O)c(O)c1)C(C)Cc1ccc(O)c(O)c1 (stereo not given)
inactive: [13] 98 % of control | [14] 100 % of control | dose: 200.0 mg/kg/injection, schedule: Q01DX009 (ip), vehicle: saline 96 % of control | dose: 400.0 mg/kg/injection, schedule: Q01DX009 (ip), vehicle: saline 100 % of control

CCCCS(=O)(=O)C1C2CCC(O2)C1S(=O)(=O)CCCC (stereo not given)
inactive: [7] 92 % of control | [12] 105 % of control | [8] 101 % of control

COc1cc(C(=O)Nc2ccc(NC3=NCCN3)cc2)cc(C(=O)Nc2ccc(NC3=NCCN3)cc2)c1
inactive: dose: 1.9 mg/kg/injection, schedule: Q01DX Z (ip), vehicle: methylcellulose (MC) 104 % of control | dose: 3.8 mg/kg/injection, schedule: Q01DX Z (ip), vehicle: methylcellulose (MC) 99 % of control | dose: 7.5 mg/kg/injection, schedule: Q01DX Z (ip), vehicle: methylcellulose (MC) 113 % of control | dose: 15.0 mg/kg/injection, schedule: Q01DX Z (ip), vehicle: methylcellulose (MC) 118 % of control
